Source: patent US6562837B1, “Use of tetrahydroisoquinoline compounds for the treatment of septicemia” (Korea Institute of Science & Technology, priority 1998, dated 2003)
Read-outs that look alike come from different tables or passages of the source.

What was measured:
[1] = test system: thrombus formation in AVS tube; assay: Thrombus formation in arterio-venous shunt (AVS) tube in rats; format: in vivo; details: for Weight (mg) of thrombus: control 42.67 ± 5.381
Procedure: An AVS tube was prepared. For this, a scalp vein set was cut into a length of 18 cm, and each end was connected to a 18G syringe needle while a 100% cotton thread 5 cm long was fixed to the center of the tube. Rats were anesthetized with ketamine (250 mg/kg) by injection (i.m.) and underwent laparotomy. An AVS tube filled with saline was installed between the abdominal aorta and the renal vein in such a way that its one syringe needle was inserted in the abdominal aorta and the other syringe needle was inserted in the renal vein. Blood was allowed to pass through the AVS tube so as to form thrombus on the cotton thread. After circulation of blood through the AVS tube for 15 min, the thread was taken out from the AVS tube. The weight of the thrombus formed on the cotton thread was determined by weighing the thread.

human platelets = assay: Inhibitory effect on platelet aggregation in human platelet rich plasma; format: cell-based
Procedure: For experiment, a blood platelet concentrate which was purchased from the Blood Bank of the Seoul National University Hospital, Korea, was measured for the number of platelets with the aid of a platelet analyzer (PLT-4, Texas Instruments), and diluted with phosphate buffered saline (hereinafter referred to as “PBS”) to give platelet rich plasma (hereinafter referred to as “PRP”) which ranged, in platelet number, from 300×10^6 to 400×10^6/ml. After being incubated at 37° C. for 3 min, PRP was added with ADP, collagen or epinephrine to induce platelet aggregation. The reduction in turbidity of PRP was observed and the degree of aggregation was monitored using a platelet aggregometer, such as that manufactured by Chrono-Log Corp. U.S.A., identified as “Model 500VS”.
The inhibitory activities of sample compounds against the platelet aggregation were evaluated as the % inhibition calculated according to the following equation: […]
A: aggregation degree of platelets obtained when adding a platelet aggregation inducer alone;
B: aggregation degree of platelets obtained when adding a combination of a platelet aggregation inducer and a sample.
Obtained using human platelets, the inhibitory effects of the compounds of Chemical Formulas 1 and 2 on platelet aggregation are given, along with the results from the control higenamine, in Table 1, below.

[2] = test system: acute thrombosis in the pulmonary artery; assay: Acute thrombosis (collagen plus epinephrine i.v.) in mice, recovery from paralysis; format: in vivo
Procedure: A mixture of collagen (300:μg/kg) plus epinephrine (30:μg/kg) was injected into the tail vein of mice (ICR; […], the same mice were employed in all of the following experiments) to induce massive, acute thrombosis in the pulmonary artery. Thus, an acute thrombosis model, in which mice were paralyzed in 1-3 min after the injection and most of them died within 15 min was prepared. To investigate the effect of the compounds of Chemical Formulas 1 and 2 on the acute thrombosis, either of the compounds was orally administered to mice for 1 or 3 days. The intravenous injection of the mixture of collagen and epinephrine was conducted 1 hour after the final oral administration. An observation was taken to examine the mortality change and the recovery from the paralysis and the results are given in Tables 4 and 5, below.
Most of the mice were paralyzed within 1 min after the injection, following dilation of the pupils, difficult breathing, and convulsions. Most of the mice either died within 5 min or were subjected to paralysis for 15 min or longer. Only a few of them recovered from the paralysis.

[3] = 10 mg/kg orally once a day for successive three days
[4] = 25 mg/kg orally once, first series, control 33.61 mg
[5] = 25 mg/kg orally once, first series, control 33.61 ± 7.620
[6] = 50 mg/kg orally once a day for successive three days
[7] = 50 mg/kg orally once, second series, control 39.54 mg
[8] = 50 mg/kg orally once, second series, control 39.54 ± 5.625
[9] = Homo sapiens, read-out: IC50 (M), ADP-induced platelet aggregation
[10] = human PRP, inducer collagen 2-4 × 10^−6 g/ml, read-out: IC50 (M), collagen-induced platelet aggregation
[11] = human PRP, inducer epinephrine 2 × 10^−6 M, read-out: IC50 (M), epinephrine-induced platelet aggregation
[12] = 10 mg/kg orally once for three successive days, recovered within 15 min
[13] = 10 mg/kg orally once for three successive days, recovered within 15 min, control 20%
[14] = 50 mg/kg orally once for three successive days, recovered within 15 min
[15] = 50 mg/kg orally once for three successive days, recovered within 15 min, control 20%
[16] = 50 mg/kg orally once, recovered from thrombotic paralysis within 15 min
[17] = 50 mg/kg orally once, recovered within 15 min, control 17%
[18] = 100 mg/kg orally once, recovered from thrombotic paralysis within 15 min
[19] = 100 mg/kg orally once, recovered within 15 min, control 17%

SMILES	% Inhibition of thrombus formation [1, 3]	Weight (mg) of thrombus [1, 3]	% Inhibition of thrombus formation [1, 4]	Weights (mg) of thrombus [1, 5]	% Inhibition of thrombus formation [1, 6]	Weight (mg) of thrombus [1, 6]	% Inhibition of thrombus formation [1, 7]	Weights (mg) of thrombus [1, 8]	IC50 (human platelets; [9])	IC50 (human platelets; [10])	IC50 (human platelets; [11])	Mice Recovered, Number [2, 12]	Mice Recovered, % [2, 13]	Mice Recovered, Number [2, 14]	Mice Recovered, % [2, 15]	Mice Recovered, Number [2, 16]	Mice Recovered, % [2, 17]	Mice Recovered, Number [2, 18]	Mice Recovered, % [2, 19]	IC50 (human platelets; human PRP, inducer ADP 1 × 10^−3 M, read-out: IC50 (M), ADP-induced platelet aggregation)
Oc1cc2c(cc1O)C(Cc1ccc3ccccc3c1)NCC2 (stereo not drawn) [Compound 2, 1-β-naphthylmethyl-6,7-dihydroxy-1,2,3,4-tetrahydroisoquinoline]	24.4%	32.24 ± 4.836 mg	32.5%	22.68 ± 10.127 mg	29.3%	30.18 ± 6.571 mg	27.7%	28.58 ± 4.234 mg	0.00086 M	9.6e-06 M	6e-06 M	7	70%	7	64%	14	50%	12	50%	–
Oc1ccc(CC2NCCc3cc(O)c(O)cc32)cc1 (stereo not drawn) [Higenamine, reference compound]	13.9%	36.76 ± 7.964 mg	31.6%	22.98 ± 11.271 mg	18.7%	34.68 ± 8.513 mg	25.1%	29.61 ± 5.059 mg	–	7e-05 M	1.9e-05 M	2	17%	5	45%	11	37%	13	48%	> 0.001 M
Oc1cc2c(cc1O)C(Cc1cccc3ccccc13)NCC2 (stereo not drawn) [Compound 1, 1-α-naphthylmethyl-6,7-dihydroxy-1,2,3,4-tetrahydroisoquinoline]	25.5%	31.78 ± 8.385 mg	39.7%	20.27 ± 5.366 mg	28.0%	30.72 ± 6.334 mg	24.8%	29.72 ± 5.975 mg	0.00073 M	9.2e-05 M	3.4e-06 M	3	30%	5	42%	8	47%	9	45%	–
